Test results from the NIST ThermoML archive (doi:10.1016/j.jct.2006.05.004).
Numbers after ± are expanded uncertainties.

Assays:
[1] = xn = mol fraction of the nth substance listed; settings: 298.15 K, 101 kPa, Liquid
[2] = excess molar enthalpy (molar enthalpy of mixing); xn = mol fraction of the nth substance listed; settings: 298.15 K, 101 kPa, Liquid
[3] = refractive index (Na D-line) (dimensionless); settings: 298.15 K; 101.33 kPa; Liquid; Standard Abbe refractometry
[4] = 298.15 K; 101.33 kPa; Liquid

BrCCCCCCBr [1,6-dibromohexane] + COC(C)=O
Settings	excess molar enthalpy [kcal/mol]	mass density [kg/m3]
[1], x2 = 0.2073	–	1527.77 ± 4.4
[1], x2 = 0.2887	–	1489.28 ± 4
[1], x2 = 0.368	–	1448.7 ± 3.6
[1], x2 = 0.44	–	1408.44 ± 3.2
[1], x2 = 0.5134	–	1363.84 ± 2.9
[1], x2 = 0.5691	–	1327.2 ± 2.6
[1], x2 = 0.6301	–	1284.18 ± 2.3
[1], x2 = 0.7305	–	1205.44 ± 1.8
[1], x2 = 0.7765	–	1165.56 ± 1.6
[1], x2 = 0.8189	–	1126.42 ± 1.4
[1], x2 = 0.8614	–	1084.46 ± 1.2
[1], x2 = 0.8974	–	1046.81 ± 0.99
[1], x2 = 0.9345	–	1005.74 ± 0.82
[1], x2 = 0.9663	–	968.1 ± 0.88
[2], x2 = 0.1165	0.063 ± 0.00136	–
[2], x2 = 0.2329	0.104 ± 0.00198	–
[2], x2 = 0.317	0.13 ± 0.00239	–
[2], x2 = 0.4064	0.148 ± 0.00263	–
[2], x2 = 0.4865	0.156 ± 0.00287	–
[2], x2 = 0.553	0.156 ± 0.00287	–
[2], x2 = 0.6074	0.151 ± 0.00263	–
[2], x2 = 0.6546	0.143 ± 0.00263	–
[2], x2 = 0.6988	0.135 ± 0.00239	–
[2], x2 = 0.7443	0.124 ± 0.00229	–
[2], x2 = 0.7905	0.108 ± 0.00206	–
[2], x2 = 0.837	0.0889 ± 0.00174	–
[2], x2 = 0.8808	0.0701 ± 0.00148	–
[2], x2 = 0.9257	0.0424 ± 0.00105	–
[2], x2 = 0.9683	0.0205 ± 0.000717	–

BrCCCCCCBr [1,6-dibromohexane] + COC=O
Settings	excess molar enthalpy [kcal/mol]	mass density [kg/m3]
[1], x2 = 0.0951	–	1574.69 ± 5
[1], x2 = 0.1373	–	1561.81 ± 4.8
[1], x2 = 0.18	–	1547.9 ± 4.6
[1], x2 = 0.2331	–	1529.55 ± 4.4
[1], x2 = 0.3709	–	1475.52 ± 3.8
[1], x2 = 0.4924	–	1417.67 ± 3.2
[1], x2 = 0.5984	–	1357.11 ± 2.7
[1], x2 = 0.6952	–	1290.94 ± 2.3
[1], x2 = 0.799	–	1204.62 ± 1.7
[1], x2 = 0.8251	–	1179.95 ± 1.6
[1], x2 = 0.9038	–	1095.21 ± 1.2
[1], x2 = 0.9183	–	1078.3 ± 1.1
[1], x2 = 0.9504	–	1037.23 ± 0.97
[1], x2 = 0.9718	–	1007.96 ± 0.87
[2], x2 = 0.099	0.0911 ± 0.00179	–
[2], x2 = 0.2052	0.166 ± 0.00287	–
[2], x2 = 0.3188	0.231 ± 0.00406	–
[2], x2 = 0.4099	0.26 ± 0.0043	–
[2], x2 = 0.4481	0.27 ± 0.00454	–
[2], x2 = 0.5059	0.278 ± 0.00478	–
[2], x2 = 0.5777	0.278 ± 0.00454	–
[2], x2 = 0.6385	0.268 ± 0.00454	–
[2], x2 = 0.69	0.252 ± 0.0043	–
[2], x2 = 0.7201	0.241 ± 0.00406	–
[2], x2 = 0.7507	0.227 ± 0.00382	–
[2], x2 = 0.7946	0.203 ± 0.00359	–
[2], x2 = 0.8411	0.169 ± 0.00311	–
[2], x2 = 0.9115	0.108 ± 0.00208	–
[2], x2 = 0.9775	0.0335 ± 0.001	–

CCCC(=O)OC [methyl butanoate]
Settings	mass density [kg/m3]	refractive index
[3]	–	1.386 ± 0.0008
[4]	892.42 ± 0.97	–

COC(C)=O [methyl ethanoate]
Settings	mass density [kg/m3]	refractive index
[3]	–	1.3585 ± 0.0008
[4]	926.73 ± 0.84	–

COC=O [methyl methanoate]
Settings	mass density [kg/m3]	refractive index
[3]	–	1.3415 ± 0.0008
[4]	966.83 ± 0.7	–

CCCCC(=O)OC [methyl pentanoate]
Settings	mass density [kg/m3]	refractive index
[3]	–	1.395 ± 0.0008
[4]	884.59 ± 1	–

CCC(=O)OC [methyl propanoate]
Settings	mass density [kg/m3]	refractive index
[3]	–	1.374 ± 0.0008
[4]	910.18 ± 0.9	–
